Measured values taken from BindingDB's records for doi:10.1016/s0960-894x(01)00209-8 (Institut Für Biochemie Der Technischen …, 2001).

Target: Beta-glucosidase (Agrobacterium sp.) (UniProt P12614)
Test: Inhibitory activity against Agrobacterium sp. Beta-glucosidase employing fluorescence spectrometric method

Sequence of Beta-glucosidase (Agrobacterium sp.) (P12614 whole entry, looked up): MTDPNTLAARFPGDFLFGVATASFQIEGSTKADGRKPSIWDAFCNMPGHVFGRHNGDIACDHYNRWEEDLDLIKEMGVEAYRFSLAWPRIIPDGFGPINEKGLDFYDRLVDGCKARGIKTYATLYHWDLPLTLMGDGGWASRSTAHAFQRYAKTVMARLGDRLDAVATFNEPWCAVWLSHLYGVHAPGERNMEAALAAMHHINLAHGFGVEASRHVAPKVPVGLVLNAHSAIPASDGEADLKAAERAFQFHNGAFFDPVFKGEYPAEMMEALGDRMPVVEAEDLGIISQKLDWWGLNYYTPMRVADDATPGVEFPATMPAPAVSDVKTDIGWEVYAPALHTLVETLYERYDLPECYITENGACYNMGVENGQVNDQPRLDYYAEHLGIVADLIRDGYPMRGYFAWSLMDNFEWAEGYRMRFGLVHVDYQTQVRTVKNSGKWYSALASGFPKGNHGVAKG

| SMILES | Ki [nM] |
| --- | --- |
| CN(C)c1cccc2c(S(=O)(=O)NC[C@H]3N[C@H](CO)[C@H](O)[C@@H]3O)cccc12 [5-Dimethylamino-naphthalene-1-sulfonic acid ((3S,4S,5R)-3,4-dihydroxy-5-hydroxymethyl-pyrrolidin-2-ylmethyl)-amide] | 2.4 |
| CN(C)c1cccc2c(S(=O)(=O)NCCCCCC(=O)NC[C@H]3N[C@H](CO)[C@H](O)[C@@H]3O)cccc12 [6-(5-Dimethylamino-naphthalene-1-sulfonylamino)-hexanoic acid ((3S,4S,5R)-3,4-dihydroxy-5-hydroxymethyl-pyrrolidin-2-ylmethyl)-amide] | 2.1 |
